Assay results reported in patent US5932743A, “Methods for the solid phase synthesis of substituted indole compounds” (American Home Products Corporation, priority 1998, dated 1999).

Target: T1, human estrogen receptor (Homo sapiens, UniProt P03372)
T1 construct: expressed in transfected cells; host or cells: Chinese Hamster Ovary cells (CHO), stably transfected
T1 sequence (P03372 1-595): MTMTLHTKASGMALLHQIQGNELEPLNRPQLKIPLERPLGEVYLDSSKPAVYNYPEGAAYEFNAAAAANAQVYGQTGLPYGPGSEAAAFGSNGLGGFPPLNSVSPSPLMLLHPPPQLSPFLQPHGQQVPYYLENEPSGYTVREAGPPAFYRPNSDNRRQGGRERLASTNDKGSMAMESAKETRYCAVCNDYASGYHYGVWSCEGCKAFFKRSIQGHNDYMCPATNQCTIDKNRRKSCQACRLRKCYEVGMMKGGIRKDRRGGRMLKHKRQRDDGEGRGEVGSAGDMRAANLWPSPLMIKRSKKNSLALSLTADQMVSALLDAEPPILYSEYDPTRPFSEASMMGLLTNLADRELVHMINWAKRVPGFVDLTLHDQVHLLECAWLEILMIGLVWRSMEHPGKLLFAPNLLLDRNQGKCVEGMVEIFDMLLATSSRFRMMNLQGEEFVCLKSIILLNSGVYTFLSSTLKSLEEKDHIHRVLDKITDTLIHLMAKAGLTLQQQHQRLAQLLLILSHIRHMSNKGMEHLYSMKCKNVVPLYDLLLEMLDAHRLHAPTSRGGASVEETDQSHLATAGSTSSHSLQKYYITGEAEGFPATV
Experiment: 2X VIT ERE Transfection Assay (estrogen receptor assay; luciferase reporter activity compared to 17β-estradiol in CHO cells stably transfected with the human estrogen receptor)
Assay type: cell-based
Details: 1 μM compound
Method: Enhancement of luciferase gene expression in this model is dependent upon estrogen receptor (ER) interaction with a vitellogenin gene estrogen responsive element (ERE) capable of enhancing basal promoter activity. This is a sensitive and rapid methodology to assess estrogenic/antiestrogenic potency of compounds.
48 h prior to treatment the growth medium is replaced with DMEM lacking phenol red+10% dextran coated charcoal stripped FBS (treatment medium). Cells are plated at a density of 5000 cells/well in 96-well plates containing 200 μL of medium/well.
20 μL of this mixture is added to each well of cells and remains on the cells for 16 h. […] Each treatment condition is performed on 8 wells (n=8) which are incubated for 24 h prior to luciferase assay.
The data is logged and automatically sent to a JMP statistical program for analysis. A hard copy printout is also produced at the time of the assay.
A plate containing a standard curve (0.1 to 1.5 milliunits in triplicate) is set up for each experimental run. The plates are analyzed on a Molecular Devices spectrophotometric plate reader at 410 nm. The optical densities for the unknowns are converted to milliunits of activity by mathematical extrapolation from the standard curve. […] The mean and standard deviation is determined from a n=8 for each treatment.

estrogenic classification / activity in words: estrogenic
Structure (SMILES): CCOC(=O)Cn1c(-c2ccccc2)c(C2=C(C(=O)OC)CCC2)c2ccc(C(=O)O)cc21 [Example 12, 1-Ethoxycarbonylmethyl-3-(2-methoxycarbonyl-cyclopent-1-enyl)-2-phenyl-1H-indole-6-carboxylic Acid]
